Assay results as given in US20210220333A1, “COMPOSITIONS AND METHODS FOR PREVENTING AND/OR TREATING FILARIAL DISEASE” (priority 2018, published 2021).
Values joined by “and” are separate entries in the source; they are usually repeats but may differ in a detail not shown here. Identical values can stand only once. Like-named read-outs stand apart in the source and are kept apart here.

Assays:
[1] = test system: adult B. malayi female worms; experiment: Adult female B. malayi incubation with UGT inhibitor in combination with albendazole, worm motility; format: cell-based, Brugia malayi; details: 8 days
Experimental: (§1) Worm motility: Worms were visualized with a dissecting microscope by an observer blinded to treatment category. Motility of the adult female B. malayi worms was rated based on the following scale: 4=active movement, 3=modest reduction in movement, 2=severe reduction in movement, 1=twitching, and 0=no movement.
For the probenecid samples, adult female worms were incubated in culture media with the drug for 8 days at concentration of 100 μM alone or in combination with 10 μM of albendazole. Worms were transferred into new media with corresponding drug concentrations every other day. As a negative control, worms were incubated in culture media alone. Worm motility was scored using a previously established scale as described in Example 3 for the course of the experiment.

[2] = cited from earlier work
[3] = test system: adult B. malayi female worms; experiment: Adult B. malayi worm incubation with UGT inhibitors, worm motility score (macrofilaricidal activity in vitro); format: cell-based, Brugia malayi; details: for Lowest effective concentration (lowest concentration with significant effect on motility): adult worms in vitro
Experimental: For the siRNA experiments, data was analyzed using one-way analysis of variance (ANOVA) or T-test by PRISM 7.0 (GraphPad Software, La Jolla, Calif., US). Following ANOVA, individual comparisons of mean values were performed using Tukey's multiple comparisons test. For the UGT inhibitor experiments, area under curve (AUC) analysis was performed followed by one-way ANOVA to determine significance. Statistical significance between the experimental and control groups was designated as follows: * for p values<0.05, ** for p values<0.01, and *** for p values<0.001.
as §1
For probenecid, adult female worms were incubated in culture media with the drug for 7 days at concentrations of 5000 μM, 500 μM, 250 μM, and 100 μM. Worms were transferred into new media with corresponding drug concentrations every other day. As a negative control, worms were incubated in culture media alone. Worm motility was scored using the previously mentioned scale described in Example 3 for the course of the experiment.

B. malayi microfilariae = B. malayi microfilariae incubation with UGT inhibitors (microfilaricidal activity in vitro); format: cell-based, Brugia malayi; details: 500 μM
Experimental: B. malayi microfilariae incubation with UGT inhibitors: The above UGT inhibitors were evaluated for microfilaricidal activity in vitro. For each drug, experiments were performed in triplicate at a concentration of 2×10^4 Mf/mL in culture media. Viability was determined by quantifying the number of motile larvae from 100 randomly selected microfilariae per well. […] As a negative control, larvae were incubated in culture media alone. The UGT inhibitor experiments were repeated two times under similar conditions.

[4] = UGT inhibitor LDH cytotoxicity assay; format: cell-based; details: human
Experimental: UGT Inhibitor Cytotoxicity Assay: Cytotoxicity of the UGT inhibitors was measured using a Pierce LDH Cytotoxicity Assay Kit (Thermo Fisher Scientific, Carlsbad, Calif., US). HEK cells were seeded at 5×10^4 per well in DMEM (Quality Biological, Gaithersburg, Md., US) with 10% Hyclone Cosmic Calf Serum (Thermo Fisher Scientific, Carlsbad, Calif., US), 200 μM of L-glutamine (Quality Biological, Gaithersburg, Md., US), and 50 μg/mL of gentamicin (Quality Biological, Gaithersburg, Md., US) at 37° C. in 5% CO2. The cells were then incubated with various concentrations of the UGT inhibitors overnight. Following this, 50 μL of media was transferred from each well to a new 96-well plate and then added 50 μL of reaction buffer. The mixture was incubated for 30 minutes and then added 50 μL of stop solution. Absorbance was measured at 490 nm and 680 nm. The following controls were included in the experiment: a spontaneous lactate dehydrogenase (LDH) activity control that was incubated with the vehicle only and a maximum LDH activity control that was incubated with nothing but later lysed prior to incubation with the reaction buffer. Absorbance was calculated for each well by subtracting the 680 nm absorbance value (background) from the 490 nm absorbance value. Percent cytotoxicity was calculated using the following equation (Formula 1): [formula]

## CCCSc1ccc2nc(NC(=O)OC)[nH]c2c1 [albendazole]
[1]; 10 μM albendazole alone
  Adult worm motility, area under the curve (AUC): 29.63
[1]; 10 μM alone
  Macrofilaricidal activity compared to media alone: Limited macrofilaricidal activity

## CCCN(CCC)S(=O)(=O)c1ccc(C(=O)O)cc1 [probenecid, p-(di-n-propylsulphamyl)-benzoic acid]
[2]; single 2 g oral dose
  Adverse events in humans: minimal adverse events
  Peak concentration in humans: 148.6 μg/mL and 520.7 μM
[3]; 500 μM
  Macrofilaricidal activity in vitro: robust macrofilaricidal activity
[3]; 5000 μM, 7 days, media control AUC 24.18
  Adult worm motility, area under the curve (AUC): 8.1
[3]; adult worms
  Macrofilaricidal activity in vitro: exhibited macrofilaricidal activity in vitro
[3]
  Lowest effective concentration (lowest concentration with significant effect on motility): 500 µM
B. malayi microfilariae
  Microfilaricidal effect: no clear microfilaricidal effect
[4]
  cytotoxicity at 100 µM: -2.69%
  cytotoxicity at 250 µM: -0.67%
  cytotoxicity at 500 µM: -1.34%
  cytotoxicity at 5000 µM: -2.49%

## O=C1C(CC[S+]([O-])c2ccccc2)C(=O)N(c2ccccc2)N1c1ccccc1 (stereo not shown) [sulfinpyrazone]
[2]; 400 mg dose, read-out: Maximum concentration (Cmax) in humans
  Cmax: 79.9 µM
[3]
  Lowest effective concentration (lowest concentration with significant effect on motility): 200 µM
[4]; HEK cells, 40 μM, overnight, LDH
  cytotoxicity at 40 µM: -4.03%
[4]; HEK cells, 100 μM, overnight, LDH, read-out: % Cytotoxicity
  cytotoxicity at 100 µM: -4.46%
[4]; HEK cells, 200 μM, overnight, LDH
  cytotoxicity at 200 µM: -5.35%
[4]; HEK cells, 2000 μM, overnight, LDH
  cytotoxicity at 2000 µM: -4.14%
